Source: ChEMBL document CHEMBL4130413, “1-Aryl-1H- and 2-aryl-2H-1,2,3-triazole derivatives blockade P2X7 receptor in vitro and inflammatory response in vivo” (Eur J Med Chem, 2017)
Active and inactive are the calls of the source. No cut-off for these calls is given here.

How the values were obtained:
Peritoneal macrophage = assay: Toxicity in Swiss mouse peritoneal macrophages assessed as LDH release at 10 uM after 60 mins relative to 0.05% Triton X-100; assay type: cell-based; conditions: 1 h
[1] = molecular target: T1, P2X purinoceptor 7 (Homo sapiens) (UniProt Q99572); assay: Antagonist activity at human P2X7 receptor expressed in HEK293 cells assessed as inhibition of ATP-induced ethidium iodide uptake at 10 uM preincubated for 10 mins followed by ATP addition measured after 20 mins by FLIPR assay relative to 1 mM ATP; assay type: cell-based
T1 sequence (whole entry): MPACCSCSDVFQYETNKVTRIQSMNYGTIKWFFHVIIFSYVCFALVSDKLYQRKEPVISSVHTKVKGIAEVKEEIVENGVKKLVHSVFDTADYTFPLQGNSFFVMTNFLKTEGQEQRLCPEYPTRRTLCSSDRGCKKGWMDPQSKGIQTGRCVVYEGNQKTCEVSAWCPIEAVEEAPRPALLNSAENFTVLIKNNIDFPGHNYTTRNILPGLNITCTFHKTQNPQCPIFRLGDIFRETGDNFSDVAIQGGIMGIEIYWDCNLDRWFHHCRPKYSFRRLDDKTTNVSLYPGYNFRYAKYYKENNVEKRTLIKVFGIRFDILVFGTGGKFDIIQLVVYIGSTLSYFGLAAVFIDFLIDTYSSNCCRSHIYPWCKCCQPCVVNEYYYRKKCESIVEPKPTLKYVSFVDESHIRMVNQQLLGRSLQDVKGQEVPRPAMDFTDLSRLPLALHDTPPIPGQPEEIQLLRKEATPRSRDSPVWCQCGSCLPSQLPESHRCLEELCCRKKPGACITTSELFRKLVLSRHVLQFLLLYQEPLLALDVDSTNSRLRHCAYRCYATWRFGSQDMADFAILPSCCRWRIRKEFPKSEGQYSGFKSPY

[2] = molecular target: P2X purinoceptor 7 (Mus musculus) (UniProt Q9Z1M0); assay: Antagonist activity at P2X7 receptor in Swiss mouse peritoneal macrophages assessed as inhibition of ATP-induced propidium iodide uptake at 10 uM after 30 mins by FLIPR assay relative to 1 mM ATP
[3] = molecular target: T2, P2X purinoceptor 7 (Mus musculus) (UniProt Q9Z1M0); assay: Antagonist activity at mouse P2X7 receptor expressed in HEK293 cells assessed as inhibition of ATP-induced ethidium iodide uptake at 10 uM preincubated for 10 mins followed by ATP addition measured after 20 mins by FLIPR assay relative to 1 mM ATP; assay type: cell-based
T2 sequence (whole entry): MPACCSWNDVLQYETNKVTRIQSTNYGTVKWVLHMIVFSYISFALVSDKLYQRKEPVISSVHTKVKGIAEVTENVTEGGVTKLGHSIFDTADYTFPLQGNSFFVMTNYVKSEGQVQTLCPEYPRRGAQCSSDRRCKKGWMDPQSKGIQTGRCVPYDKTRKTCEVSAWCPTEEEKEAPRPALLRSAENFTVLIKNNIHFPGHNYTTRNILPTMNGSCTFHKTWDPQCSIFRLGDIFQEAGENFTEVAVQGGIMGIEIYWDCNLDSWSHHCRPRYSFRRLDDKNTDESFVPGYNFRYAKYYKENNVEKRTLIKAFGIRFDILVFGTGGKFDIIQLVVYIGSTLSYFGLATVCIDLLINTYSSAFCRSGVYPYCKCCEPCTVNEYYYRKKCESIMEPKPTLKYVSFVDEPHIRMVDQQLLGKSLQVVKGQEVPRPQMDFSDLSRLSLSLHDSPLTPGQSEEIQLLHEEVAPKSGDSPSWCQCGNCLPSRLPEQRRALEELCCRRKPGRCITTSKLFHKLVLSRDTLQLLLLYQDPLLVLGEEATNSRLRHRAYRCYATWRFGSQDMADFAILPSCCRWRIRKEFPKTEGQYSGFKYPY

[4] = molecular target: T2, P2X purinoceptor 7 (Mus musculus); assay: (§1) Antagonist activity at P2X7 receptor in Swiss mouse peritoneal macrophages assessed as inhibition of ATP-induced propidium iodide uptake after 25 mins by flow cytometric analysis
P2X purinoceptor 7 [5] = molecular target: T3, P2X purinoceptor 7 (Mus musculus, UniProt Q9Z1M0); assay: as §1
T3 sequence (Q9Z1M0 whole entry): T2 sequence (whole entry)

P2X purinoceptor 7 [6] = molecular target: T3, P2X purinoceptor 7; assay: Antagonist activity at P2X7 receptor in Swiss mouse peritoneal macrophages assessed as inhibition of ATP-induced current at holding potential of -60 mV preincubated for 5 mins followed by ATP addition measured after 5 mins by Whole cell patch-clamp analysis
[7] = Cytotoxicity against Swiss mouse peritoneal macrophages after 24 hrs by LDH-release assay; assay type: cell-based, Peritoneal macrophage
P2X purinoceptor 7 [8] = molecular target: T4, P2X purinoceptor 7 (Homo sapiens, UniProt Q99572); assay: Antagonist activity at human P2X7 receptor expressed in HEK293 cells assessed as inhibition of ATP-induced ethidium iodide uptake preincubated for 10 mins followed by ATP addition measured after 20 mins by spectrofluorometric analysis; assay type: cell-based
T4 sequence (Q99572 whole entry): T1 sequence (whole entry)

Row | Structure (SMILES) | inhibition [1] | inhibition [2] | inhibition [3] | inhibition [4] | IC50 (P2X purinoceptor 7 [5]) | IC50 (P2X purinoceptor 7 [6]) | IC50 (P2X purinoceptor 7 [8]) | Activity (Peritoneal macrophage) | CC50 at 24 h [7]
1 | O=C(OCc1cn(-c2ccccc2)nn1)c1ccccc1 | 16.1% | 32.1% |  |  |  |  |  | 58.1% | 
2 | CC(=O)OCc1cn(-c2ccc(Cl)cc2)nn1 | 9.89% | 23.2% |  |  |  |  |  | 19.66% | 
3 | CCCCCCCCCC(=O)OCc1cn(-c2ccc(Cl)cc2)nn1 | 78% | 76% |  | Dose-dependent effect | 107 nM | 103 nM | 108 nM | 8% | 2840 nM
4 | CCOCc1cnn(-c2ccccc2)n1 | 79.1% | 70% | Active |  |  |  |  | 26.49% | 
5 | O=Cc1cn(-c2ccccc2)nn1 | 95.3% | 84.6% | Active | Dose-dependent effect | 167 nM | 103 nM | 478 nM | 10.51% | 3740 nM
6 | OCc1cn(-c2cc(Cl)ccc2Cl)nn1 | 38.1% | 28.3% |  |  |  |  |  | 12.09% | 
7 | CC(=O)OCc1cn(-c2cc(Cl)cc(Cl)c2)nn1 | 29.4% | 65.2% |  |  |  |  |  | 45.33% | 
8 | O=C(OCc1cnn(-c2ccccc2)n1)c1ccccc1 | 88.2% | 81.3% |  |  |  |  |  | 36.94% | 
9 | CCCCOCc1cn(-c2ccc(Cl)cc2)nn1 | 15.1% | 35.8% |  |  |  |  |  | 30.33% | 
10 | O=C(OCc1cn(-c2cc(Cl)cc(Cl)c2)nn1)c1ccccc1 | 2.96% | 14.2% |  |  |  |  |  | 24.02% | 
11 | CC(=O)OCc1cnn(-c2ccccc2)n1 | 80.1% | 73.5% |  |  |  |  |  | 38.5% | 
12 | CCCCOCc1cnn(-c2ccccc2)n1 | 16.1% | 37.1% |  |  |  |  |  | 27.19% | 
13 | CCCCOCc1cn(-c2ccc(OC)cc2)nn1 | 51.3% | 31.4% |  |  |  |  |  | 27.66% | 
14 | O=Cc1cnn(-c2ccccc2)n1 | 42.1% | 31.5% |  |  |  |  |  | 41.65% | 
15 | O=Cc1cn(-c2cc(Cl)ccc2Cl)nn1 | 44% | 36.7% |  |  |  |  |  | 13.73% | 
16 | CCOCc1cn(-c2cc(Cl)ccc2Cl)nn1 | 45.3% | 75.5% |  |  |  |  |  | 42.66% | 
17 | CCCCCC(=O)OCc1cn(-c2ccc(Cl)cc2)nn1 | 2.2% | 11.1% |  |  |  |  |  | 34.19% | 
18 | CCCCCCCCCC(=O)OCc1cn(-c2cc(Cl)ccc2Cl)nn1 | 1.17% | 9.86% |  |  |  |  |  | 10% | 
19 | CCOCc1cn(-c2cc(Cl)cc(Cl)c2)nn1 | 51.2% | 36.5% |  |  |  |  |  | 34% | 
20 | CCCCCCCCCC(=O)OCc1cnn(-c2ccccc2)n1 | 19.2% | 29.5% |  |  |  |  |  | 42.5% | 
21 | OCc1cn(-c2ccccc2)nn1 | 30.1% | 10.9% |  |  |  |  |  | 20.98% | 
22 | CCCCCC(=O)OCc1cn(-c2ccccc2)nn1 | 18.2% | 44.6% |  |  |  |  |  | 15.83% | 
23 | CCCCCCCCCC(=O)OCc1cn(-c2ccccc2)nn1 | 23.2% | 60% |  |  |  |  |  | 42.53% | 
24 | OCc1cn(-c2ccc(Cl)cc2)nn1 | 26.1% | 22.5% |  |  |  |  |  | 15.57% | 
25 | OCc1cn(-c2cc(Cl)cc(Cl)c2)nn1 | 41.1% | 11.4% |  |  |  |  |  | 30.55% | 
26 | CCCOCc1cn(-c2cc(Cl)cc(Cl)c2)nn1 | 33.7% | 24% |  |  |  |  |  | 14.03% | 
27 | CCCOCc1cn(-c2ccccc2)nn1 | 20.1% | 25.1% |  |  |  |  |  | 14.66% | 
28 | O=C(OCc1cn(-c2ccc(Cl)cc2)nn1)c1ccccc1 | 26.8% | 60.6% |  |  |  |  |  | 45.73% | 
29 | CCCOCc1cn(-c2cc(Cl)ccc2Cl)nn1 | 46.6% | 24% |  |  |  |  |  | 22.66% | 

Continued, in another order:

Row | inhibition [1] | inhibition [2] | inhibition [3] | inhibition [4] | IC50 (P2X purinoceptor 7 [5]) | IC50 (P2X purinoceptor 7 [6]) | IC50 (P2X purinoceptor 7 [8]) | Structure (SMILES) | Activity (Peritoneal macrophage) | CC50 at 24 h [7]
30 | 50.3% | 44.3% |  |  |  |  |  | COc1ccc(-n2cc(C=O)nn2)cc1 | 17.92% | 
31 | 67.5% | 78.1% | Active |  |  |  |  | CCCCOCc1cn(-c2ccccc2)nn1 | 32.33% | 
32 | 94.1% | 86.3% | Active | Dose-dependent effect | 488 nM | 341 nM | 932 nM | COc1ccc(-n2cc(CO)nn2)cc1 | 9.7% | 363 nM
33 | 41.2% | 26.6% |  |  |  |  |  | CCCOCc1cnn(-c2ccccc2)n1 | 13.33% | 
34 | 62.4% | 32.5% |  |  |  |  |  | CCCOCc1cn(-c2ccc(Cl)cc2)nn1 | 26.66% | 
35 | 3% | 11% |  |  |  |  |  | O=C(OCc1cn(-c2cc(Cl)ccc2Cl)nn1)c1ccccc1 | 26.66% | 
36 | 94.3% | 83% | Active | Dose-dependent effect | 349 nM | 457 nM | 897 nM | O/N=C/c1cnn(-c2ccccc2)n1 | 12.66% | 250 nM
37 | 90.1% | 79.8% |  | Dose-dependent effect | 317 nM | 316 nM | 621 nM | CCCCOCc1cn(-c2cc(Cl)ccc2Cl)nn1 | 11.66% | 505 nM
38 | 56.7% | 49.3% |  |  |  |  |  | CCOCc1cn(-c2ccccc2)nn1 | 52.73% | 
39 | 10.2% | 29.6% |  |  |  |  |  | O=C(OCc1cnn(-c2ccccc2)n1)C1CCCC1 | 43.04% | 
40 | 35.8% | 15.6% |  |  |  |  |  | CCCOCc1cn(-c2ccc(OC)cc2)nn1 | 13.03% | 
41 | 81% | 84% |  |  |  |  |  | CC(=O)OCc1cn(-c2ccccc2)nn1 | 36.39% | 
42 | 9.12% | 29.4% |  |  |  |  |  | COc1ccc(-n2cc(COC(C)=O)nn2)cc1 | 15% | 
43 | 8.15% |  |  |  |  |  |  | CCCCC(=O)OCc1cn(-c2ccc(OC)cc2)nn1 | 46.3% | 
44 | 71.2% | 76.6% |  |  |  |  |  | CC(=O)OCc1cn(-c2cc(Cl)ccc2Cl)nn1 | 32% | 
45 | 7.28% | 20.6% |  |  |  |  |  | O=C(OCc1cn(-c2cc(Cl)ccc2Cl)nn1)C1CCCC1 | 22.66% | 
46 | 45% | 44.8% |  |  |  |  |  | CCOCc1cn(-c2ccc(OC)cc2)nn1 | 20.66% | 
47 | 10.6% | 24.4% |  |  |  |  |  | COc1ccc(-n2cc(COC(=O)c3ccccc3)nn2)cc1 | 10.66% | 
48 | 62.1% | 58% |  |  |  |  |  | O/N=C/c1cn(-c2cc(Cl)cc(Cl)c2)nn1 | 29.47% | 
49 | 64.3% | 58% |  |  |  |  |  | O/N=C/c1cn(-c2ccccc2)nn1 | 28.59% | 
